According to US10040838B2, “CRHR2 peptide agonists and uses thereof” (JANSSEN PHARMACEUTICA NV, priority 2008, dated 2018):
Residues, ends and D or L forms follow the SMILES beside them. No end group written: not given here. *: point of attachment. Succinimide(1-Et,3-yl) = CCN1C(=O)CC(*)C1=O

Molecular target: T1, human CRHR2 (Homo sapiens, UniProt Q13324)
T1 construct: expressed in transfected cells
T1 sequence (Q13324 1-411): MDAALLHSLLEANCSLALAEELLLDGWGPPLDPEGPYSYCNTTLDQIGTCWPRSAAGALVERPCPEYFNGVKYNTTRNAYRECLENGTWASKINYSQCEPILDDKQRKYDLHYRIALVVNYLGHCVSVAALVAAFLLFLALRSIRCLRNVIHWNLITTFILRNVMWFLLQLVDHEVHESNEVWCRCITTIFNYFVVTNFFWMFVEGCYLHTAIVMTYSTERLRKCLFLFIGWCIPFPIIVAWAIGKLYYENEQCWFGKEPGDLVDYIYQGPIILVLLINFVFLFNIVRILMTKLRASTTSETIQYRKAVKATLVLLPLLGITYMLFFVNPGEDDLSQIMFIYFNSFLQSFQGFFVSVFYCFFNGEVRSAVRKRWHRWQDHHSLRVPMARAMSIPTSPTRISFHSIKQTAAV
Assay: cAMP assay in h-CRHR2 transfected SK-N-MC cells
Assay type: cell-based
Settings: for Log DR: Table 13, h-SCP control pA50 minus test compound pA50 within same assay batch; for nH: Table 12, Hill slope
Procedure: The concentration required for 50% maximum effect (A50) was 0.4 nM.
Human CRHR1 (accession number X72304) or CRHR2 (accession number U34587) were cloned into pcDNA3.1/Zeo expression vector and stably transfected into SK-N-MC cells by electroporation. Cells were maintained in MEM w/Earl's Salt with 10% FBS, 50 I.U. penicillin, 50 μg/ml streptomycin, 2 mM L-glutamine, 1 mM sodium pyruvate and 0.1 mM nonessential amino acids, 600 μg/ml G418. Cells were grown at 37° C. in 5% CO2.
Cells were plated in 96-well tissue culture dishes (Biocoat from BD Biosciences) overnight at 50,000 cell/well. Cells were washed with PBS then resuspended in DMEM F-12 without phenol red, containing 10 μM isobutylmethylxanthine (IBMX). Cells were incubated with the peptides at concentrations ranging from 1 pM to 10 μM for 60 min at 37° Celsius. […] Forskolin (10 μM), a direct stimulant of adenylate cyclase, was used as positive control. The assays were stopped by the addition of 0.5 M HCl and mixing by orbital rotation for 2 h at 4° Celsius.
To assess the activity of the inventive peptide at the CRHR2, an intracellular cAMP measurement test using a Flash plate radioactive assay (Catalog No. Cus56088; Perkin Elmer, MA, U.S.A.) was employed.
Transfected SK-N-MC cells were plated in 96-well Biocoat tissue culture dishes (BD Biosciences, San Jose, Calif., U.S.A) overnight at 50,000 cell/well. Cells were first washed with PBS and then suspended with DMEM/F-12 without phenol red, containing […]. Suspended cells were transferred into a 96-well flash plate coated with scintillant fluid. Cells were incubated with peptides ranging from […], for 60 min, at 37° Celsius. Forskolin at 10 μM was used as positive control. After ligand stimulation, cells were lysed by the addition of 0.5M HCl and mixed by orbital rotation for 2 h at 4° Celsius in order to release intracellular cAMP into the media.
Media containing released intracellular cAMP was transferred to a 96-well flash plate coated with scintillant fluid containing an anti-cAMP antibody. In this assay, intracellular cAMP competes with ^125I-labeled cAMP binding to the antibody. To generate a standard curve, cAMP ranging from 2.5 to 250 pmoles/ml was included in the experiment. [^125I]-cAMP was measured on a TopCount scintillation counter (Perkin Elmer, MA, U.S.A).
Individual agonist concentration-response curve data were fitted to the Hill equation, see formula below, using GraphPad Prism (Graphpad Software, La Jolla, Calif., U.S.A.), to provide estimates of agonist concentration needed to generate one-half maximal response (A50), and the maximal asymptote (α) and Hill slope (nH) parameters. In this equation, [A] is the agonist concentration and E is the measured effect:
For display purposes the mean fitted parameter estimates were used to generate a single E/[A] curve shown superimposed on the mean experimental data. Potency estimates for agonists, pA50, are expressed as the negative logarithm of the midpoint of each curve and listed with their standard error of measurement (SEM). Logarithm base 10 of the agonist dose ratio (Log DR) values were calculated by subtraction of the test compound pA50 value from the corresponding h-SCP (SEQ ID NO:1) control pA50 value within the same assay batch. The SEM values of the Log DR values are given by the square root of the sum of the squared SEM values of the h-SCP (SEQ ID NO:1) control and test compound pA50 values.
Human and rat peptides (see Table 10) were used on the stimulation of h-CRHR1 or h-CRHR2 transfected SK-N-MC cells in the cAMP flash plate assay. Peptides were incubated for 1 hr at 37° Celsius. Curves were calculated using non-linear regression sigmoidal concentration-response analysis calculation in GraphPad Prism. The so obtained pA50 values are shown in Table 11 in addition to literature values. […]

Molecule	Log DR	nH
CC[C@H](C)[C@H](NC(=O)[C@H](CC(N)=O)NC(=O)[C@H](Cc1ccccc1)NC(=O)[C@H](CC(C)C)NC(=O)[C@H](CC(C)C)NC(=O)[C@H](CC(N)=O)NC(=O)[C@H](CCSC)NC(=O)[C@@H](NC(=O)[C@H](CC(N)=O)NC(=O)[C@@H](NC(=O)[C@@H]1CCCN1C(=O)[C@@H](NC(=O)[C@H](CC(=O)O)NC(=O)[C@H](CC(C)C)NC(=O)[C@H](CO)NC(=O)[C@H](CC(C)C)NC(=O)[C@@H](NC(=O)[C@H](Cc1ccccc1)NC(=O)[C@H](CCCCN)NC(=O)[C@@H](N)[C@@H](C)O)[C@@H](C)O)C(C)C)[C@@H](C)O)[C@@H](C)CC)C(=O)N[C@@H](C)C(=O)N[C@@H](CCCCN)C(=O)N[C@@H](C)C(=O)N[C@@H](CCCCN)C(=O)N[C@@H](CC(N)=O)C(=O)N[C@@H](CC(C)C)C(=O)N[C@@H](CCCNC(=N)N)C(=O)N[C@@H](C)C(=O)N[C@@H](CCC(N)=O)C(=O)N[C@@H](C)C(=O)N[C@@H](C)C(=O)N[C@@H](C)C(=O)N[C@@H](CC(N)=O)C(=O)N[C@@H](C)C(=O)N[C@@H](Cc1c[nH]cn1)C(=O)N[C@@H](CC(C)C)C(=O)N[C@@H](CCSC)C(=O)N[C@@H](C)C(=O)N[C@@H](CCC(N)=O)C(=O)N[C@@H](CSC1CC(=O)N(CC)C1=O)C(N)=O (stereo partly drawn) [SEQ ID NO: 42, TKFTLSLDVPTNIMNLLFNIAKAKNLRAQAAANAHLMAQC(-NES)-NH2] (H-TKFTLSLDVPTNIMNLLFNIAKAKNLRAQAAANAHLMAQC(Succinimide(1-Et,3-yl))-NH2; N-terminus assumed)	~1.72	
TKFTLSLDVPTNIMNLLFNIAKAKNLRAQAAANAHLCAQI-NH2 [SEQ ID NO: 38, TKFTLSLDVPTNIMNLLFNIAKAKNLRAQAAANAHLCAQI-NH2]	>2.95	
TKFTLSLDVPTNIMNLLFNIACAKNLRAQAAANAHLMAQI-NH2 [SEQ ID NO: 23, TKFTLSLDVPTNIMNLLFNIACAKNLRAQAAANAHLMAQI-NH2]	1.13	
LSLDVPTNIMNLLFNIAKAKNLRAQAAANAHLMAQI-NH2 [SEQ ID NO: 109, LSLDVPINIMNLLFNIAKAKNLRAQAAANAHLMAQI-NH2]		0.74
CKFTLSLDVPTNIMNLLFNIAKAKNLRAQAAANAHLMAQI-NH2 [SEQ ID NO: 2, CKFTLSLDVPTNIMNLLFNIAKAKNLRAQAAANAHLMAQI-NH2]	0.72	
CC[C@H](C)[C@H](NC(=O)[C@H](CCC(N)=O)NC(=O)[C@H](C)NC(=O)[C@H](CCSC)NC(=O)[C@H](CC(C)C)NC(=O)[C@H](Cc1c[nH]cn1)NC(=O)[C@H](C)NC(=O)[C@H](CC(N)=O)NC(=O)[C@H](C)NC(=O)[C@H](CSC1CC(=O)N(CC)C1=O)NC(=O)[C@H](C)NC(=O)[C@H](CCC(N)=O)NC(=O)[C@H](C)NC(=O)[C@H](CCCNC(=N)N)NC(=O)[C@H](CC(C)C)NC(=O)[C@H](CC(N)=O)NC(=O)[C@H](CCCCN)NC(=O)[C@H](C)NC(=O)[C@H](CCCCN)NC(=O)[C@H](C)NC(=O)[C@@H](NC(=O)[C@H](CC(N)=O)NC(=O)[C@H](Cc1ccccc1)NC(=O)[C@H](CC(C)C)NC(=O)[C@H](CC(C)C)NC(=O)[C@H](CC(N)=O)NC(=O)[C@H](CCSC)NC(=O)[C@@H](NC(=O)[C@H](CC(N)=O)NC(=O)[C@@H](NC(=O)[C@@H]1CCCN1C(=O)[C@@H](NC(=O)[C@H](CC(=O)O)NC(=O)[C@H](CC(C)C)NC(=O)[C@H](CO)NC(=O)[C@H](CC(C)C)NC(=O)[C@@H](NC(=O)[C@H](Cc1ccccc1)NC(=O)[C@H](CCCCN)NC(=O)[C@@H](N)[C@@H](C)O)[C@@H](C)O)C(C)C)[C@@H](C)O)[C@@H](C)CC)[C@@H](C)CC)C(N)=O (stereo partly drawn) [SEQ ID NO: 46, TKFTLSLDVPTNIMNLLFNIAKAKNLRAQAC(-NES)ANAH LMAQI-NH2] (H-TKFTLSLDVPTNIMNLLFNIAKAKNLRAQAC(Succinimide(1-Et,3-yl))ANAHLMAQI-NH2; N-terminus assumed)	0.04	
KFTLSLDVPTNIMNLLFNIAKAKNLRAQAAANAHLMAQI-NH2 [SEQ ID NO: 107, KFTLSLDVPTNIMNLLFNIAKAKNLRAQAAANAHLMAQI-NH2]		1.07
CC[C@H](C)[C@H](NC(=O)[C@H](CCC(N)=O)NC(=O)[C@H](C)NC(=O)[C@H](CCSC)NC(=O)[C@H](CC(C)C)NC(=O)[C@H](Cc1c[nH]cn1)NC(=O)[C@H](C)NC(=O)[C@H](CC(N)=O)NC(=O)[C@H](C)NC(=O)[C@H](C)NC(=O)[C@H](C)NC(=O)[C@H](CCC(N)=O)NC(=O)[C@H](C)NC(=O)[C@H](CCCNC(=N)N)NC(=O)[C@H](CC(C)C)NC(=O)[C@H](CC(N)=O)NC(=O)[C@H](CCCCN)NC(=O)[C@H](C)NC(=O)[C@H](CCCCN)NC(=O)[C@H](C)NC(=O)[C@@H](NC(=O)[C@H](CSC1CC(=O)N(CC)C1=O)NC(=O)[C@H](Cc1ccccc1)NC(=O)[C@H](CC(C)C)NC(=O)[C@H](CC(C)C)NC(=O)[C@H](CC(N)=O)NC(=O)[C@H](CCSC)NC(=O)[C@@H](NC(=O)[C@H](CC(N)=O)NC(=O)[C@@H](NC(=O)[C@@H]1CCCN1C(=O)[C@@H](NC(=O)[C@H](CC(=O)O)NC(=O)[C@H](CC(C)C)NC(=O)[C@H](CO)NC(=O)[C@H](CC(C)C)NC(=O)[C@@H](NC(=O)[C@H](Cc1ccccc1)NC(=O)[C@H](CCCCN)NC(=O)[C@@H](N)[C@@H](C)O)[C@@H](C)O)C(C)C)[C@@H](C)O)[C@@H](C)CC)[C@@H](C)CC)C(N)=O (stereo partly drawn) [SEQ ID NO: 52, TKFTL SLDVP TNIMN LLFC(-NES)I AKAKN LRAQA AANAH LMAQI-NH2] (H-TKFTLSLDVPTNIMNLLFC(Succinimide(1-Et,3-yl))IAKAKNLRAQAAANAHLMAQI-NH2; N-terminus assumed)	0.05	
TKFTLSLDCPTNIMNLLFNIAKAKNLRAQAAANAHLMAQI-NH2 [SEQ ID NO: 10, TKFTLSLDCPTNIMNLLFNIAKAKNLRAQAAANAHLMAQI-NH2]	1.30	
TKFTLSLDVPTNIMNLLFNIAKAKNLRAQAACNAHLMAQI-NH2 [SEQ ID NO: 33, TKFTLSLDVPTNIMNLLFNIAKAKNLRAQAACNAHLMAQI-NH2]	0.45	
TKFTLSLDVPTNIMNLLFNIAKAKNLRCQAAANAHLMAQI-NH2 [SEQ ID NO: 29, TKFTLSLDVPTNIMNLLFNIAKAKNLRCQAAANAHLMAQI-NH2]	0.00	
TKFTLSLDVPTNIMNLLFNIAKAKNLRAQAAANAHLMCQI-NH2 [SEQ ID NO: 39, TKFTLSLDVPTNIMNLLFNIAKAKNLRAQAAANAHLMCQI-NH2]	0.41	
